Where two headings read alike, the source gives them in different places.
How the values were obtained:
[1] = system: recombinant NL4-3 virus (nef section replaced with Renilla luciferase gene) in MT-2 cells; assay: HIV cell culture assay (antiviral activity, luciferase readout); assay type: cell-based; conditions: Renilla, NL43, MT-2 cells infected for 4-5 days with recombinant NL4-3 Renilla luciferase virus
How it was run: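 Reporter virus is produced in 293T cells and its titer set in MT-2 cells by luciferase activity. MT-2 cells are then infected in the presence of serially diluted compound for 4-5 days. Luciferase is quantified and EC50 fitted to the median effect equation.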

[2] = Compound cytotoxicity, XTT-based colorimetric assay; assay type: cell-based; conditions: human
How it was run: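 CC50 derived from XTT colorimetric signal measured on day 4 in MT2 cells that were not infected. All other steps followed the antiviral assay protocol.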

[3] = uninfected MT2 cells, day 4, XTT, read-out: CC50

Structure (SMILES): COCCNc1cc(C2CCC(F)(F)CC2)nc2nc([C@H](Cc3cc(F)cc(F)c3)NC(=O)Cn3nc(C(F)F)c4c3C(F)(F)[C@@H]3C[C@H]43)n(-c3ccc(Cl)c4c(NS(C)(=O)=O)nn(CCN5CCC(F)CC5)c34)c(=O)c12 (atropisomer, axis not shown; (P)) [Example 415, N-[(1S)-1-[(3P)-3-{4-chloro-1-[2-(4-fluoropiperidin-1-yl)ethyl]-3-methanesulfonamido-1H-indazol-7-yl}-7-(4,4-difluorocyclohexyl)-5-[(2-methoxyethyl)amino]-4-oxo-3H,4H-pyrido[2,3-d]pyrimidin-2-yl]-2-(3,5-difluorophenyl)ethyl]-2-[(2S,4R)-9-(difluoromethyl)-5,5-difluoro-7,8-diazatricyclo[4.3.0.0^2,^4]nona-1(6),8-dien-7-yl]acetamide]
- EC50 [1]: 0.013 nM
- CC50 at 4 days [2, 3]: > 20 nM

Structure (SMILES): COCCNc1cc(C2CCC(F)(F)CC2)nc2nc([C@H](Cc3cc(F)cc(F)c3)NC(=O)Cn3nc(C(F)F)c4c3C(F)(F)[C@@H]3C[C@H]43)n(-c3ccc(Cl)c4c(NS(C)(=O)=O)nn(CCN5CCCC(F)(F)C5)c34)c(=O)c12 (atropisomer, axis not shown; (P)) [Example 416, N-[(1S)-1-[(3P)-3-{4-chloro-1-[2-(3,3-difluoropiperidin-1-yl)ethyl]-3-methanesulfonamido-1H-indazol-7-yl}-7-(4,4-difluorocyclohexyl)-5-[(2-methoxyethyl)amino]-4-oxo-3H,4H-pyrido[2,3-d]pyrimidin-2-yl]-2-(3,5-difluorophenyl)ethyl]-2-[(2S,4R)-9-(difluoromethyl)-5,5-difluoro-7,8-diazatricyclo[4.3.0.0^2,^4]nona-1(6),8-dien-7-yl]acetamide]
- EC50 [1]: 0.012 nM
- CC50 at 4 days [2, 3]: > 20 nM

Structure (SMILES): COCCNc1cc(C2CCC(F)(F)CC2)nc2nc([C@H](Cc3cc(F)cc(F)c3)NC(=O)Cn3nc(C(F)F)c4c3C(F)(F)[C@@H]3C[C@H]43)n(-c3ccc(Cl)c4c(NS(C)(=O)=O)nn(CCN5C[C@@H](F)[C@@H](F)C5)c34)c(=O)c12 (atropisomer, axis not shown; (P)) [Example 417, N-[(1S)-1-[(3P)-3-(4-chloro-1-{2-[(3R,4S)-3,4-difluoropyrrolidin-1-yl]ethyl}-3-methanesulfonamido-1H-indazol-7-yl)-7-(4,4-difluorocyclohexyl)-5-[(2-methoxyethyl)amino]-4-oxo-3H,4H-pyrido[2,3-d]pyrimidin-2-yl]-2-(3,5-difluorophenyl)ethyl]-2-[(2S,4R)-9-(difluoromethyl)-5,5-difluoro-7,8-diazatricyclo[4.3.0.0^2,^4]nona-1(6),8-dien-7-yl]acetamide]
- EC50 [1]: 0.007 nM
- CC50 at 4 days [2, 3]: > 20 nM

Structure (SMILES): COCCNc1cc(C2CCC(F)(F)CC2)nc2nc([C@H](Cc3cc(F)cc(F)c3)NC(=O)Cn3nc(C(F)F)c4c3C(F)(F)[C@@H]3C[C@H]43)n(-c3ccc(Cl)c4c(NS(C)(=O)=O)nn(CCN5C[C@@H](C)O[C@@H](C)C5)c34)c(=O)c12 (atropisomer, axis not shown; (P)) [Example 418, N-[(1S)-1-[(3P)-3-(4-chloro-1-{2-[(2R,6S)-2,6-dimethylmorpholin-4-yl]ethyl}-3-methanesulfonamido-1H-indazol-7-yl)-7-(4,4-difluorocyclohexyl)-5-[(2-methoxyethyl)amino]-4-oxo-3H,4H-pyrido[2,3-d]pyrimidin-2-yl]-2-(3,5-difluorophenyl)ethyl]-2-[(2S,4R)-9-(difluoromethyl)-5,5-difluoro-7,8-diazatricyclo[4.3.0.0^2,^4]nona-1(6),8-dien-7-yl]acetamide]
- EC50 [1]: 0.019 nM
- CC50 at 4 days [2, 3]: > 20 nM

Structure (SMILES): COCCNc1cc(C2CCC(F)(F)CC2)nc2nc([C@H](Cc3cc(F)cc(F)c3)NC(=O)Cn3nc(C(F)F)c4c3C(F)(F)[C@@H]3C[C@H]43)n(-c3ccc(Cl)c4c(NS(C)(=O)=O)nn(CCN5C[C@H]6C[C@@H](C5)O6)c34)c(=O)c12 (atropisomer, axis not shown; (P)) [Example 419, N-[(1S)-1-[(3P)-3-(4-chloro-3-methanesulfonamido-1-{2-[(1R,5S)-6-oxa-3-azabicyclo[3.1.1]heptan-3-yl]ethyl}-1H-indazol-7-yl)-7-(4,4-difluorocyclohexyl)-5-[(2-methoxyethyl)amino]-4-oxo-3H,4H-pyrido[2,3-d]pyrimidin-2-yl]-2-(3,5-difluorophenyl)ethyl]-2-[(2S,4R)-9-(difluoromethyl)-5,5-difluoro-7,8-diazatricyclo[4.3.0.0^2,^4]nona-1(6),8-dien-7-yl]acetamide]
- EC50 [1]: 0.011 nM
- CC50 at 4 days [2]: > 20 nM

Structure (SMILES): COCCNc1cc(C2CCC(F)(F)CC2)nc2nc([C@H](Cc3cc(F)cc(F)c3)NC(=O)Cn3nc(C(F)F)c4c3C(F)(F)[C@@H]3C[C@H]43)n(-c3ccc(Cl)c4c(NS(C)(=O)=O)nn(CCN5C[C@H]6CC[C@@H](C5)O6)c34)c(=O)c12 (atropisomer, axis not shown; (P)) [Example 420, N-[(1S)-1-[(3P)-3-(4-chloro-3-methanesulfonamido-1-{2-[(1R,5S)-8-oxa-3-azabicyclo[3.2.1]octan-3-yl]ethyl}-1H-indazol-7-yl)-7-(4,4-difluorocyclohexyl)-5-[(2-methoxyethyl)amino]-4-oxo-3H,4H-pyrido[2,3-d]pyrimidin-2-yl]-2-(3,5-difluorophenyl)ethyl]-2-[(2S,4R)-9-(difluoromethyl)-5,5-difluoro-7,8-diazatricyclo[4.3.0.0^2,^4]nona-1(6),8-dien-7-yl]acetamide]
- EC50 [1]: 0.011 nM
- CC50 at 4 days [2, 3]: > 20 nM

Structure (SMILES): CC1(C)CN(CCn2nc(NS(C)(=O)=O)c3c(Cl)ccc(-n4c([C@H](Cc5cc(F)cc(F)c5)NC(=O)Cn5nc(C6CC6)c6c5C[C@@H]5C[C@H]65)nc5nc(C6CCC(F)(F)CC6)cc(C(F)F)c5c4=O)c32)CC(C)(C)O1 (atropisomer, axis not shown; (P)) [Example 421, N-[(1S)-1-[(3P)-3-{4-chloro-3-methanesulfonamido-1-[2-(2,2,6,6-tetramethylmorpholin-4-yl)ethyl]-1H-indazol-7-yl}-7-(4,4-difluorocyclohexyl)-5-(difluoromethyl)-4-oxo-3H,4H-pyrido[2,3-d]pyrimidin-2-yl]-2-(3,5-difluorophenyl)ethyl]-2-[(2S,4S)-9-cyclopropyl-7,8-diazatricyclo[4.3.0.0^2,^4]nona-1(6),8-dien-7-yl]acetamide]
- EC50 [1]: 0.012 nM
- CC50 at 4 days [2, 3]: > 20 nM

Structure (SMILES): CC1(C)CN(CCn2nc(NS(C)(=O)=O)c3c(Cl)ccc(-n4c([C@H](Cc5cc(F)cc(F)c5)NC(=O)Cn5nc(C6CC6)c6c5C[C@@H]5C[C@H]65)nc5nc(C6CCC(F)(F)CC6)ccc5c4=O)c32)CC(C)(C)O1 (atropisomer, axis not shown; (P)) [Example 424, N-[(1S)-1-[(3P)-3-{4-chloro-3-methanesulfonamido-1-[2-(2,2,6,6-tetramethylmorpholin-4-yl)ethyl]-1H-indazol-7-yl}-7-(4,4-difluorocyclohexyl)-4-oxo-3H,4H-pyrido[2,3-d]pyrimidin-2-yl]-2-(3,5-difluorophenyl)ethyl]-2-[(2S,4S)-9-cyclopropyl-7,8-diazatricyclo[4.3.0.0^2,^4]nona-1(6),8-dien-7-yl]acetamide]
- EC50 [1]: 0.012 nM
- CC50 at 4 days [2, 3]: > 20 nM

Structure (SMILES): CCNc1cc(C2CCC(F)(F)CC2)nc2nc([C@H](Cc3cc(F)cc(F)c3)NC(=O)Cn3nc(C(F)F)c4c3C(F)(F)[C@@H]3C[C@H]43)n(-c3ccc(Cl)c4c(NS(C)(=O)=O)nn(CCCOC)c34)c(=O)c12 (atropisomer, axis not shown; (P)) [Example 427, N-[(1S)-1-[(3P)-3-[4-chloro-3-methanesulfonamido-1-(3-methoxypropyl)-1H-indazol-7-yl]-7-(4,4-difluorocyclohexyl)-5-(ethylamino)-4-oxo-3H,4H-pyrido[2,3-d]pyrimidin-2-yl]-2-(3,5-difluorophenyl)ethyl]-2-[(2S,4R)-9-(difluoromethyl)-5,5-difluoro-7,8-diazatricyclo[4.3.0.0^2,4]nona-1(6),8-dien-7-yl]acetamide]
- EC50 [1]: 0.01 nM
- CC50 at 4 days [2, 3]: > 20 nM

Structure (SMILES): COCCCn1nc(NS(C)(=O)=O)c2c(Cl)ccc(-n3c([C@H](Cc4cc(F)cc(F)c4)NC(=O)Cn4nc(C(F)F)c5c4C(F)(F)[C@@H]4C[C@H]54)nc4nc(C5CCC(F)(F)CC5)cc(NC[C@@H]5CCCOC5)c4c3=O)c21 (atropisomer, axis not shown; (P)) [Example 428, N-[(1S)-1-[(3P)-3-[4-chloro-3-methanesulfonamido-1-(3-methoxypropyl)-1H-indazol-7-yl]-7-(4,4-difluorocyclohexyl)-5-({[(3S)-oxan-3-yl]methyl}amino)-4-oxo-3H,4H-pyrido[2,3-d]pyrimidin-2-yl]-2-(3,5-difluorophenyl)ethyl]-2-[(2S,4R)-9-(difluoromethyl)-5,5-difluoro-7,8-diazatricyclo[4.3.0.0^2,^4]nona-1(6),8-dien-7-yl]acetamide]
- EC50 [1]: 0.02 nM
- CC50 at 4 days [2, 3]: > 20 nM

Structure (SMILES): COCCCn1nc(NS(C)(=O)=O)c2c(Cl)ccc(-n3c([C@H](Cc4cc(F)cc(F)c4)NC(=O)Cn4nc(C(F)F)c5c4C(F)(F)[C@@H]4C[C@H]54)nc4nc(C5CCC(F)(F)CC5)cc(NCCN5CCCC5)c4c3=O)c21 (atropisomer, axis not shown; (P)) [Example 429, N-[(1S)-1-[(3P)-3-[4-chloro-3-methanesulfonamido-1-(3-methoxypropyl)-1H-indazol-7-yl]-7-(4,4-difluorocyclohexyl)-4-oxo-5-{[2-(pyrrolidin-1-yl)ethyl]amino}-3H,4H-pyrido[2,3-d]pyrimidin-2-yl]-2-(3,5-difluorophenyl)ethyl]-2-[(2S,4R)-9-(difluoromethyl)-5,5-difluoro-7,8-diazatricyclo[4.3.0.0^2,^4]nona-1(6),8-dien-7-yl]acetamide]
- EC50 [1]: 0.019 nM
- CC50 at 4 days [2, 3]: > 20 nM

Reference: US12594276B2, “Inhibitors of human immunodeficiency virus replication” (ViiV Healthcare UK (No.5) Limited, priority 2024, dated 2026)
